Patent publication US11666640B2, “Glucose oxidase compositions as a neonate anticonvulsant” (PENN STATE RESEARCH FOUNDATION, priority 2018, dated 2023)
“Also recorded” adds a separate entry of the source.

Tests used:
CLC-3 channels = target: T1, CLC-3 channels (Rattus norvegicus, UniProt P51792); test: Whole-cell Cl− currents in CLC-3-transfected HEK293T cells; type: cell-based
T1 construct: host or cells: HEK293T
T1 sequence (P51792 1-760 isoform P51792-2): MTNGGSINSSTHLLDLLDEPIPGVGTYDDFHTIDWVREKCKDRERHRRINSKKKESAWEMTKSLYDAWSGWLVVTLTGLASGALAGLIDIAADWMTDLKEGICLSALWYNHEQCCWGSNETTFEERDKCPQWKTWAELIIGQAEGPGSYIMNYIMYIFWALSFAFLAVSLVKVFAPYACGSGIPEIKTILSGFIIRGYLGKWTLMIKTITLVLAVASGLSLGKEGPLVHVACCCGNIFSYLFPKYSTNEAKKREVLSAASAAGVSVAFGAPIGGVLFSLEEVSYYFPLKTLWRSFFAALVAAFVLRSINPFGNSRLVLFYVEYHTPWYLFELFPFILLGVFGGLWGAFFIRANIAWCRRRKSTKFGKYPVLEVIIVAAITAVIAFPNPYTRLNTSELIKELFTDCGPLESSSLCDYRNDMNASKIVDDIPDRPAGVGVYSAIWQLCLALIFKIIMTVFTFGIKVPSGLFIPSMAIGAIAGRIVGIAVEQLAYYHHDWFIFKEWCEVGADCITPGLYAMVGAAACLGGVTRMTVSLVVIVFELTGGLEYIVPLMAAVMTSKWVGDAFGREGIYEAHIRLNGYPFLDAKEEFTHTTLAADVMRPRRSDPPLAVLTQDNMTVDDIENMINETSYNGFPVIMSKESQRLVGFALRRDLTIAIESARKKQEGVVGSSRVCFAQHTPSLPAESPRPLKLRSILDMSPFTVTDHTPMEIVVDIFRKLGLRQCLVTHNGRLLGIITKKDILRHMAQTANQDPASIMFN

[1] = system: KA induced neonatal seizure; test: KA-induced neonatal seizure, in vivo EEG recording; conditions: NaGcA 2 g/kg i.p. about 1 hr after KA, P10-12 rat; sodium salt
[2] = system: GABA-induced neuronal activity; test: Cell-attached recording of spike firing elicited by isoguvacine in CA3 pyramidal neurons; type: cell-based, mouse; conditions: P8-9, isoguvacine 10 μM, 30 s
Description: Besides EGABA, the effects of different drugs on GABA-induced neuronal activity during epileptogenesis were investigated in neonatal animals (e.g., P8-9). To accurately measure GABA-induced neuronal activity, cell-attached recordings monitored spike firing elicited by local application of the GABAA-R agonist isoguvacine (10 μM, 30 s). Tyzio et al., “Maternal oxytocin triggers a transient inhibitory switch in GABA signaling in the fetal brain during delivery” Science 314:1788-1792 (2006). […] FIG. 16K, control, (n=32). […] FIG. 16K, 0 Mg^2+ (n=19). […] FIG. 16K; 0 Mg^2++Bum (n=19); and 0 Mg^2++VU (n=21). […] FIG. 16K; 0 Mg^2++NaGcA (n=18).

[3] = system: PTZ-induced seizure behavior; test: Seizure behavior test (Racine score) after PTZ; type: in vivo, mouse; conditions: PTZ 50 mg/kg i.p., adult mice
Description: Male mice were divided into three groups: vehicle control group (saline, n=9), D-gluconic acid sodium at 1 g/kg group (n=10), and D-gluconic acid sodium at 2 g/kg group (n=11). PTZ (50 mg/kg) was intraperitoneally administered 1 hr after drug treatment. After PTZ injection, the behavior was monitored and observed for 1 hr. The seizure behavior was classified according to Racine Score: stage 0, no response; stage 1, facial twitching; stage 2, nod; stage 3, forelimb clonic, tail upright; stage 4, stand with forelimbs clonic; stage 5, stand and fall, jump, general clonic seizure, general clonic and tonic seizure or death. Racine et al., “Modification of seizure activity by electrical stimulation. 3. Mechanisms” Electroencephalogr Clin Neurophysiol 32:295-299 (1972).

hippocampal slices = test: Field potential recording of epileptiform activity in hippocampal slices (CA3 pyramidal layer); type: cell-based, mouse
CLC-3 Cl− channels = target: T2, CLC-3 Cl− channels (Mus musculus, UniProt P51791); test: Voltage-dependent outward rectifying Cl− currents in CA3 pyramidal neurons of hippocampal slices; type: cell-based
T2 construct: CA3 pyramidal neurons of hippocampal slices from neonatal mice; from tissue; host or cells: acute hippocampal slices (CA3 pyramidal neurons), C57BL/6 mice
T2 sequence (P51791 1-818): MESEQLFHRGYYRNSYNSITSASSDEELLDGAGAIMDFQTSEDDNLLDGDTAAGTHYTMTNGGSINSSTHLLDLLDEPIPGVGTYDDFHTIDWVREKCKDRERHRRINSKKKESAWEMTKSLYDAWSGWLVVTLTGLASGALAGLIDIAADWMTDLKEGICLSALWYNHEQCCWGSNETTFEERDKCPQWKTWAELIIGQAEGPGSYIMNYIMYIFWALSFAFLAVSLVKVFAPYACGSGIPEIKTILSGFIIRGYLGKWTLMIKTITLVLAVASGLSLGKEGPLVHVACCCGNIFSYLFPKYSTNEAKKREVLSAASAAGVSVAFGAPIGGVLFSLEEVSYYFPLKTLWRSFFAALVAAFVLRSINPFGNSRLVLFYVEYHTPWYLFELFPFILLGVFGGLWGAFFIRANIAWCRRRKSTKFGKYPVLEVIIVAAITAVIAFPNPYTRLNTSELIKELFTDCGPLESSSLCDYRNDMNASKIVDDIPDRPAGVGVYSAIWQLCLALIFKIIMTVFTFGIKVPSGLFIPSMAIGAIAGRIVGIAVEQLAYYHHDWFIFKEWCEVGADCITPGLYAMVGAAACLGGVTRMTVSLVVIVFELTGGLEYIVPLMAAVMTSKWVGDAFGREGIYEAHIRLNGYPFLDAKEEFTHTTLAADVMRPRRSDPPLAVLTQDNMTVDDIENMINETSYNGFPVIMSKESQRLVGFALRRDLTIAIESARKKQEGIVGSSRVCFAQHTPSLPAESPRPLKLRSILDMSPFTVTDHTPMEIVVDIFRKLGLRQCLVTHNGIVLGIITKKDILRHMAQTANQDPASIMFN

[4] = 0 Mg2+ aCSF, WT slices P8-12 pre-treated with 20 mM NaGcA

O=C([O-])[C@H](O)[C@@H](O)[C@H](O)[C@H](O)CO.[Na+] [NaGcA, D-gluconic acid sodium salt]
CLC-3-mediated Cl− currents (CLC-3 channels; 20 mM NaGcA, at +90 mV): 544±59 pA
CLC-3 channel-mediated Cl− currents (inhibition) (CLC-3 channels; 20 mM NaGcA, sodium salt): significantly inhibited; also recorded: significantly reduced
CLC-3-mediated Cl− currents after washout of NaGcA (CLC-3 channels; after washout, at +90 mV): 925±124 pA
stable epileptic activity induced by KA (acute effect) [1]: gradually reduced; also recorded: significantly reduced; also recorded: still suppressed seizure activity
spike activity elicited by isoguvacine after 0 Mg2+ treatment [2]: essentially abolished
behavioral seizure score [3]: mild inhibitory effect
latency of seizure behavior (Racine score 3 and above) [3]: dose-dependently prolonged
reduction of average power of epileptic activity (hippocampal slices; 0 Mg2+ aCSF, 20 mM NaGcA, P6-8): 59.6±4.3%
reduction of average power of epileptic activity (hippocampal slices; 0 Mg2+ aCSF, 20 mM NaGcA, P10-12): 62.1±3.8%
reduction of average power of epileptic activity (hippocampal slices; 0 Mg2+ aCSF, 20 mM NaGcA, P21-33): 23.8±4.1%
burst latency (hippocampal slices; [4]): significantly prolonged
total burst activity (hippocampal slices; [4]): significantly reduced
epileptic activity induced by 4-AP (hippocampal slices; 50 μM 4-AP, neonatal slices, 20 mM NaGcA, sodium salt): significantly reduced; also recorded: attenuated
epileptiform activity induced by 0 Mg2+ aCSF, neonatal slices (hippocampal slices; 20 mM NaGcA, P6-12, sodium salt): strong inhibition; also recorded: strong efficacy; also recorded: dramatically reduced; also recorded: potent anti-epileptic effect; also recorded: inhibited
epileptiform activity induced by 0 Mg2+ aCSF, older animals (hippocampal slices; 20 mM NaGcA, P21-33 (P26), sodium salt): modest effect; also recorded: much less inhibition; also recorded: much smaller; also recorded: moderate anti-epileptic discharges effect; also recorded: less effect
reduction of the power amplitude (hippocampal slices; 4-AP (50 μM) model, neonatal slices, 20 mM NaGcA): 70.2±5.3%
reduction of the power amplitude (hippocampal slices; high K+ (8.5 mM) model, neonatal slices, 20 mM NaGcA): 70.8±4.9%
epileptic burst activity in high K+ model (hippocampal slices; high K+ aCSF (8.5 mM), neonatal slices, 20 mM NaGcA, sodium salt): remarkably suppressed; also recorded: blocked; also recorded: dramatically reduced
Cl− currents after 0 Mg2+ treatment (inhibition) (CLC-3 Cl− channels; 0 Mg2+ aCSF 1 hr, 20 mM NaGcA, sodium salt): remarkable inhibition; also recorded: significantly inhibited; also recorded: significantly blocked; also recorded: remarkably inhibited
Cl− current density after 0 Mg2+ treatment (CLC-3 Cl− channels; 0 Mg2+ aCSF 1 hr, recorded in 20 mM NaGcA, +90 mV): 7.3±0.6 pA/pF
Cl− currents in neonatal CA3 pyramidal neurons (CLC-3 Cl− channels; 20 mM NaGcA, neonatal, sodium salt): dramatically reduced; also recorded: potent inhibitor; also recorded: remarkably inhibited
Cl− currents in CLC-3 KO mice (CLC-3 Cl− channels; CLC-3 KO mice, NaGcA, sodium salt): little inhibition; also recorded: no effect
Cl− current inhibition by gluconic acid with various counter ions (CLC-3 Cl− channels; P8-12 neonatal mice, 20 mM NaGcA, 10 mM Mg(GcA)2, 20 mM gluconic acid): equivalent Cl− current inhibition
Cl− currents in adult brains (CLC-3 Cl− channels; adult (P60-62), 20 mM NaGcA): no effect
